Experimental findings from PubChem BioAssay (NCI) are described below.

Some test systems named below: RXF-631 renal; P388 leukemia; P388/ADR leukemia.
What all share (experiment): NCI tumour cell line growth inhibition, 48 h

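Values below derive from 48-hour exposures of cells grown in 96-well plates, with endpoints linearly interpolated between the two concentrations bracketing the appropriate inhibition level. TGI: concentration producing complete growth inhibition.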

With `Clc1ccc2c(NCCCCCCNc3ccnc4cc(Cl)ccc34)ccnc2c1`, in the assay on RXF-631 renal, the TGI worked out at 6.02 µM.
Consider `CC(=O)C(=Cc1cn(C)c(=O)n(C)c1=O)C(C)=O`, for which the TGI with P388 leukemia came to 240 µM; in the assay on P388/ADR leukemia, 392 µM.
